The supplement of paper PMC10307832

Legend:
Assay in all cases: relative viability (nuclei count vs DMSO), 5 days (fraction); higher = more cells survive
Veliparib + Decitabine = compound: C[C@]1(c2nc3c(C(N)=O)cccc3[nH]2)CCCN1 [Veliparib] + Nc1ncn([C@H]2C[C@H](O)[C@@H](CO)O2)c(=O)n1 [Decitabine] (partner 2 µM)
Method in brief: (§1)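 Lung cancer cell lines were seeded in 1536-well plates and dosed by pin tool the next day, with either a single drug or a fixed anchor-drug dose combined with five library-drug doses (not always all listed) spaced in √10 steps. Five days later, one step fixed the cells and stained their nuclei (final 0.05% Triton X-100, 1% formaldehyde, 1 ug/ml Hoechst), and nuclei were counted on 4× images. Relative viability is the nuclei count in treated wells divided by the count in vehicle wells, and each value is the median of duplicate plates.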

[1] = compound: COC1=CC=C(C=C1)CN2C=CC3=C2C=C(C=C3)C(=O)NO + Nc1nc2[nH]cc(CCc3ccc(C(=O)N[C@@H](CCC(=O)O)C(=O)O)cc3)c2c(=O)[nH]1 [Pemetrexed] (partner 0.2 µM)
Method in brief: as §1

Veliparib + OSI-027 = compound: C[C@]1(c2nc3c(C(N)=O)cccc3[nH]2)CCCN1 [Veliparib] + COc1cccc2cc(-c3nc([C@H]4CC[C@H](C(=O)O)CC4)n4ncnc(N)c34)[nH]c12 [OSI-027] (partner 0.5 µM)
Method in brief: as §1

Veliparib + Olaparib = compound: C[C@]1(c2nc3c(C(N)=O)cccc3[nH]2)CCCN1 [Veliparib] + O=C(c1cc(Cc2n[nH]c(=O)c3ccccc23)ccc1F)N1CCN(C(=O)C2CC2)CC1 [Olaparib] (partner 8 µM)
Method in brief: as §1

| Cell Line | relative viability (Veliparib + Decitabine; first compound 0.02 µM) | relative viability (Veliparib + Decitabine; first compound 0.06325 µM) | relative viability (Veliparib + Decitabine; first compound 0.2 µM) | relative viability (Veliparib + Decitabine; first compound 0.6325 µM) | relative viability (Veliparib + Decitabine; first compound 2 µM) | relative viability ([1]; first compound 0.08 µM) | relative viability ([1]; first compound 0.253 µM) | relative viability ([1]; first compound 0.8 µM) | relative viability ([1]; first compound 2.53 µM) | relative viability ([1]; first compound 8 µM) | relative viability (Veliparib + OSI-027; first compound 0.02 µM) | relative viability (Veliparib + OSI-027; first compound 0.06325 µM) | relative viability (Veliparib + OSI-027; first compound 0.2 µM) | relative viability (Veliparib + OSI-027; first compound 0.6325 µM) | relative viability (Veliparib + OSI-027; first compound 2 µM) | relative viability (Veliparib + Olaparib; first compound 0.02 µM) | relative viability (Veliparib + Olaparib; first compound 0.06325 µM) | relative viability (Veliparib + Olaparib; first compound 0.2 µM) | relative viability (Veliparib + Olaparib; first compound 0.6325 µM) | relative viability (Veliparib + Olaparib; first compound 2 µM) |
| --- | --- | --- | --- | --- | --- | --- | --- | --- | --- | --- | --- | --- | --- | --- | --- | --- | --- | --- | --- | --- |
| NCI-H1792 | 0.463 | 0.381 | 0.397 | 0.263 | 0.26 | 0.907 | 0.952 | 1 | 1.05 | 0.832 | 0.738 | 0.708 | 0.73 | 0.707 | 0.664 | 0.693 | 0.311 | 0.68 | 0.411 | 0.397 |
| EKVX |  | 0.319 | 0.364 | 0.338 | 0.294 |  | 0.391 | 0.371 | 0.45 | 0.392 | 0.629 | 0.646 | 0.63 | 0.639 | 0.675 |  | 0.911 | 0.889 | 0.72 | 0.867 |
| CAL-12T |  |  |  |  |  | 1.2 | 1.27 | 1.09 | 1.1 | 1.27 | 0.62 | 0.629 | 0.604 | 0.584 | 0.657 | 0.723 | 0.727 | 0.696 | 0.649 | 0.712 |
| SW 900 |  | 0.377 | 0.396 | 0.427 | 0.388 | 0.446 | 0.47 | 0.478 | 0.486 | 0.474 |  |  | 0.675 | 0.582 | 0.413 |  | 0.724 | 0.939 | 0.722 | 0.818 |
| NCI-H1734 |  | 0.374 | 0.389 | 0.33 | 0.35 |  | 0.413 | 0.427 | 0.4 | 0.414 | 0.44 | 0.575 | 0.57 | 0.585 | 0.67 |  | 0.577 | 0.666 | 0.567 | 0.691 |
| NCI-H522 | 0.663 | 0.561 | 0.547 | 0.622 | 0.678 |  | 1.01 | 1.06 | 0.84 | 1 | 0.679 | 0.731 | 0.888 | 0.689 | 0.732 | 0.678 | 0.593 | 0.667 | 0.57 | 0.566 |
| A549 | 0.202 | 0.137 | 0.0868 | 0.106 | 0.0789 |  |  |  |  |  |  |  |  |  |  | 0.308 | 0.375 | 0.223 | 0.314 | 0.407 |
| BEN | 0.572 | 0.581 | 0.613 | 0.565 | 0.624 | 0.729 | 0.615 | 0.921 | 0.725 | 0.661 | 0.288 | 0.315 | 0.294 | 0.296 | 0.3 | 0.799 | 1.15 | 1.12 | 0.92 | 1 |
| NCI-H2126 | 0.575 | 0.561 | 0.538 | 0.545 | 0.559 | 0.669 | 0.73 | 0.672 | 0.706 | 0.649 | 0.647 | 0.608 | 0.747 | 0.749 | 0.679 | 0.905 | 0.925 | 0.913 | 0.927 | 0.865 |
| NCI-H1563 |  |  |  |  |  | 0.489 | 0.708 | 0.839 | 0.728 | 0.761 | 0.672 | 0.741 | 0.799 | 0.751 | 0.77 |  |  |  |  |  |
